{
  "source": "patent US7495018B2",
  "about": "“Substituted 1,3-thiazole compounds, their production and use” (Takeda Pharmaceutical Company Limited, priority 2000, dated 2009)",
  "note": "pIC50: −log10 of the molar value.",
  "data": [
    {"tested_on": "not given", "experiment": "not given", "conditions": "not given", "units": {"melting point": "°C"}, "values": [
      {"smiles": "Cc1cc(C)cc(-c2nc(NC(=O)c3ccc(C)nc3)sc2-c2ccnc(C)c2)c1", "note": "[Example Compound 46-3, N-[4-(3,5-dimethylphenyl)-5-(2-methyl-4-pyridyl)-1,3-thiazol-2-yl]-6-methylnicotinamide]", "melting point": "252 to 253"},
      {"smiles": "Cc1cccc(-c2nc(N(C)C(=O)c3ccc(C)nc3)sc2-c2ccnc(NC3CCCC3)c2)c1", "note": "[Example Compound 46-4, N-[5-(2-cyclopentylamino-4-pyridyl)-4-(3-methylphenyl)-1,3-thiazol-2-yl]-N,6-dimethylnicotinamide]", "melting point": "117 to 118"},
      {"smiles": "COc1ccc(C(=O)Nc2nc(-c3cccc(C)c3)c(-c3ccnc(C)c3)s2)cn1", "note": "[Example Compound 47, 6-methoxy-N-[4-(3-methylphenyl)-5-(2-methyl-4-pyridyl)-1,3-thiazol-2-yl]nicotinamide]", "melting point": "224 to 226"},
      {"smiles": "COc1ccc(C(=O)Nc2nc(-c3cccc(C)c3)c(-c3ccnc(NC4CCCCC4)c3)s2)cn1", "note": "[Example Compound 48-1, N-[5-(2-cyclohexylamino-4-pyridyl)-4-(3-methylphenyl)-1,3-thiazol-2-yl]-6-methoxynicotinamide]", "melting point": "191 to 192"},
      {"smiles": "COc1ccc(C(=O)Nc2nc(-c3cccc(C)c3)c(-c3ccnc(NC4CCCC4)c3)s2)cn1", "note": "[Example Compound 48-2, N-[5-(2-cyclopentylamino-4-pyridyl)-4-(3-methylphenyl)-1,3-thiazol-2-yl]-6-methoxynicotinamide]", "melting point": "219 to 221"},
      {"smiles": "COc1ccc(C(=O)Nc2nc(-c3cc(C)cc(C)c3)c(-c3ccnc(C)c3)s2)cn1", "note": "[Example Compound 48-3, N-[4-(3,5-dimethylphenyl)-5-(2-methyl-4-pyridyl)-1,3-thiazol-2-yl]-6-methoxynicotinamide]", "melting point": "242 to 244"},
      {"smiles": "COc1ncccc1C(=O)Nc1nc(-c2cccc(C)c2)c(-c2ccnc(C)c2)s1", "note": "[Example Compound 49, 2-methoxy-N-[4-(3-methylphenyl)-5-(2-methyl-4-pyridyl)-1,3-thiazol-2-yl]nicotinamide]", "melting point": "169 to 170"},
      {"smiles": "COc1ccc(-c2nc(NC(C)=O)sc2-c2ccnc(N)c2)cc1", "note": "[Example Compound 50, N-[5-(2-amino-4-pyridyl)-4-(4-methoxyphenyl)-1,3-thiazol-2-yl]acetamide]", "melting point": "247 to 250"},
      {"smiles": "COc1ccc(-c2nc(NC(=O)c3ccccc3)sc2-c2ccnc(N)c2)cc1", "note": "[Example Compound 51, N-[5-(2-amino-4-pyridyl)-4-(4-methoxyphenyl)-1,3-thiazol-2-yl]benzamide]", "melting point": "219 to 222"},
      {"smiles": "Cc1cc(C)cc(-c2nc(NC(=O)Nc3ccccc3)sc2-c2cc(C)nc(C)c2)c1", "note": "[Example Compound 53-1, N-[4-(3,5-dimethylphenyl)-5-(2,6-dimethyl-4-pyridyl)-1,3-thiazol-2-yl]-N′-phenylurea]", "melting point": "219 to 222"},
      {"smiles": "Cc1cccc(-c2nc(NC(=O)Nc3ccccc3)sc2-c2ccnc(NC3CCCCC3)c2)c1", "note": "[Example Compound 53-2, N-[5-(2-cyclohexylamino-4-pyridyl)-4-(3-methylphenyl)-1,3-thiazol-2-yl]-N′-phenylurea]", "melting point": "198 to 199"},
      {"smiles": "Cc1cccc(-c2nc(NC(=O)Nc3ccccc3)sc2-c2ccnc(NC3CCCC3)c2)c1", "note": "[Example Compound 53-3, N-[5-(2-cyclopentylamino-4-pyridyl)-4-(3-methylphenyl)-1,3-thiazol-2-yl]-N′-phenylurea]", "melting point": "188 to 190"},
      {"smiles": "Cc1cccc(-c2nc(NC(=O)Nc3ccccc3)sc2-c2ccnc(C)c2)c1", "note": "[Example Compound 53-4, N-[4-(3-methylphenyl)-5-(2-methyl-4-pyridyl)-1,3-thiazol-2-yl]-N′-phenylurea]", "melting point": "168 to 169"},
      {"smiles": "Cc1cc(C)cc(-c2nc(-c3ccc([S+](C)[O-])cc3)sc2-c2ccnc(C)c2)c1", "note": "(stereo not shown) [Example Compound 56-1, 4-(3,5-dimethylphenyl)-5-(2-methyl-4-pyridyl)-2-(4-methylsulfinylphenyl)-1,3-thiazole]", "melting point": "151 to 153"},
      {"smiles": "Cc1cc(C)cc(-c2nc(-c3ccc([S+](C)[O-])cc3)sc2-c2cc(C)nc(C)c2)c1", "note": "(stereo not shown) [Example Compound 56-2, 4-(3,5-dimethylphenyl)-5-(2,6-dimethyl-4-pyridyl)-2-(4-methylsulfinylphenyl)-1,3-thiazole]", "melting point": "151 to 154"},
      {"smiles": "Cc1cc(C)cc(-c2nc(-c3ccc(S(C)(=O)=O)cc3)sc2-c2ccnc(C)c2)c1", "note": "[Example Compound 58-1, 4-(3,5-dimethylphenyl)-5-(2-methyl-4-pyridyl)-2-(4-methylsulfonylphenyl)-1,3-thiazole]", "melting point": "196 to 197"},
      {"smiles": "Cc1cccc(-c2nc(-c3ccc(S(C)(=O)=O)cc3)sc2-c2cc(C)nc(C)c2)c1", "note": "[Example Compound 58-2, 5-(2,6-dimethyl-4-pyridyl)-4-(3-methylphenyl)-2-(4-methylsulfonylphenyl)-1,3-thiazole]", "melting point": "182 to 184"},
      {"smiles": "Cc1cc(C)cc(-c2nc(-c3ccc(S(C)(=O)=O)cc3)sc2-c2cc(C)nc(C)c2)c1", "note": "[Example Compound 58-3, 4-(3,5-dimethylphenyl)-5-(2,6-dimethyl-4-pyridyl)-2-(4-methylsulfonylphenyl)-1,3-thiazole]", "melting point": "217 to 220"},
      {"smiles": "Cc1cccc(-c2nc(-c3ccc(S(C)(=O)=O)cc3)sc2-c2ccnc(F)c2)c1", "note": "[Example Compound 58-4, 5-(2-fluoro-4-pyridyl)-4-(3-methylphenyl)-2-(4-methylsulfonylphenyl)-1,3-thiazole]", "melting point": "195 to 199"},
      {"smiles": "Cc1cc(-c2sc(-c3ccc(S(C)(=O)=O)cc3)nc2-c2ccc(F)cc2)ccn1", "note": "[Example Compound 58-5, 4-(4-fluorophenyl)-5-(2-methyl-4-pyridyl)-2-(4-methylsulfonylphenyl)-1,3-thiazole]", "melting point": "190 to 192"},
      {"smiles": "CC(=O)Nc1cc(-c2sc(-c3ccc(S(C)(=O)=O)cc3)nc2-c2cccc(Cl)c2)ccn1", "note": "[Example Compound 58-6, N-[4-[4-(3-chlorophenyl)-2-(4-methylsulfonylphenyl)-1,3-thiazol-5-yl]-2-pyridyl]acetamide]", "melting point": "216 to 217"},
      {"smiles": "CCC(=O)Nc1cc(-c2sc(-c3ccc(S(C)(=O)=O)cc3)nc2-c2cccc(Cl)c2)ccn1", "note": "[Example Compound 58-7, N-[4-[4-(3-chlorophenyl)-2-(4-methylsulfonylphenyl)-1,3-thiazol-5-yl]-2-pyridyl]propionamide]", "melting point": "224 to 225"},
      {"smiles": "CC(C)(C)C(=O)Nc1cc(-c2sc(-c3ccc(S(C)(=O)=O)cc3)nc2-c2cccc(Cl)c2)ccn1", "note": "[Example Compound 58-8, N-[4-[4-(3-chlorophenyl)-2-(4-methylsulfonylphenyl)-1,3-thiazol-5-yl]-2-pyridyl]pivalamide]", "melting point": "122 to 123"},
      {"smiles": "Cc1cccc(-c2nc(NC(=O)OCCCl)sc2-c2ccnc(C)c2)c1", "note": "[Example Compound 62, 2-chloroethyl[4-(3-methylphenyl)-5-(2-methyl-4-pyridyl)-1,3-thiazol-2-yl]carbamate]", "melting point": "156 to 158"},
      {"smiles": "Cc1cccc(-c2nc(NC(=O)NOc3ccccc3)sc2-c2ccnc(C)c2)c1", "note": "[Example Compound 64, N-[4-(3-methylphenyl)-5-(2-methyl-4-pyridyl)-1,3-thiazol-2-yl]-N′-phenyloxyurea]", "melting point": "154 to 155"},
      {"smiles": "Cc1cccc(-c2nc(N3CCNC3=O)sc2-c2ccnc(C)c2)c1", "note": "[Example Compound 66, 1-[4-(3-methylphenyl)-5-(2-methyl-4-pyridyl)-1,3-thiazol-2-yl]imidazolidin-2-one]", "melting point": "200 to 201"},
      {"smiles": "Cc1cccc(-c2nc(-c3ccc(S(C)(=O)=O)cc3)sc2-c2cc[n+]([O-])c(C)c2)c1", "note": "[Example Compound 68-1, 4-[4-(3-methylphenyl)-2-(4-methylsulfonylphenyl)-1,3-thiazol-5-yl]-2-methylpyridine N-oxide]", "melting point": "197 to 198"},
      {"smiles": "CCc1nc(-c2cccc(Br)c2)c(-c2ccnc(NC(=O)OC(C)(C)C)c2)s1", "note": "[Example Compound 75-1, 4-(3-bromophenyl)-5-[2-(tert-butoxycarbonylamino)-4-pyridyl]-2-ethyl-1,3-thiazole]", "melting point": "172 to 174"},
      {"smiles": "CCc1nc(-c2cccc(Br)c2)c(-c2ccnc(N)c2)s1", "note": "[Example Compound 75-2, 4-[4-(3-bromophenyl)-2-ethyl-1,3-thiazol-5-yl]-2-pyridylamine]", "melting point": "132 to 134"},
      {"smiles": "CCc1nc(-c2ccccc2)c(-c2ccnc(NC(=O)OC(C)(C)C)c2)s1", "note": "[Example Compound 79-1, 5-[2-(tert-butoxycarbonylamino)-4-pyridyl]-2-ethyl-4-phenyl-1,3-thiazole]", "melting point": "154 to 155"},
      {"smiles": "CCc1nc(-c2ccccc2)c(-c2ccnc(NC(C)=O)c2)s1", "note": "[Example Compound 82-1, N-[4-(2-ethyl-4-phenyl-1,3-thiazol-5-yl)-2-pyridyl]acetamide]", "melting point": "175 to 176"}
    ]},
    {"tested_on": "TNF-α production in THP-1 cells", "experiment": "Inhibitory activity of TNF-α production in LPS-stimulated THP-1 cells", "type": "cell-based", "conditions": "Homo sapiens, LPS 5 μg/mL, 4 hours, TNF-α by ELISA, read-out: IC50 (concentration inhibiting 50% of TNF-α production)", "description": "Measurement of Inhibitory Activity of TNF-α Production\nTHP-1 cells cultured in a PRMI 1640 medium (Life Technologies, Inc., USA) containing 1% inactivated fetal bovine serum (Life Technologies, Inc.) and 10 mM HEPES (pH 7.5) were inoculated on a 96 well plate to give 1×10^5 cells/well, then, 1 μL of a sample compound dissolved in DMSO was added. After incubation for 1 hour at 37° C. in a CO2 incubator, LPS (Wako Pure Chemical Industries Ltd.) was added to give a final concentration of 5 μg/mL. After incubation for 4 hours at 37° C. in a CO2 incubator, the supernatant was obtained by centrifugal separation. The TNF-α concentration in the supernatant was measured by ELISA (R&D Systems, Quantikine Kit). The concentration (IC50 value) of a sample compound necessary for inhibiting 50% of TNF-α production was calculated by PRISM 2.01 (GraphPad Software).", "values": [
      {"smiles": "CCc1nc(-c2cccc(Cl)c2)c(-c2ccnc(NC(C)=O)c2)s1", "note": "[Example 30-2, N-[4-[4-(3-chlorophenyl)-2-ethyl-1,3-thiazol-5-yl]-2-pyridyl]acetamide]", "pIC50": 6.92},
      {"smiles": "CCc1nc(-c2cccc(Cl)c2)c(-c2ccnc(NC3CCCCC3)c2)s1", "note": "[Example 36-10, 4-[4-(3-chlorophenyl)-2-ethyl-1,3-thiazol-5-yl]-N-cyclohexyl-2-pyridylamine]", "pIC50": 7.26},
      {"smiles": "CCC(=O)Nc1cc(-c2sc(-c3ccc(S(C)(=O)=O)cc3)nc2-c2cccc(Cl)c2)ccn1", "note": "[Example 58-7, N-[4-[4-(3-chlorophenyl)-2-(4-methylsulfonylphenyl)-1,3-thiazol-5-yl]-2-pyridyl]propionamide]", "pIC50": 7.68}
    ]}
  ]
}
